Here are results for 11 molecules from ChEMBL document CHEMBL1649331, “Determination of CEM-101 activity tested against clinical isolates of Neisseria meningitidis from a worldwide collection” (2010).

≈ marks a conversion by molar mass, not a printed value.

Type in all cases: functional
In assay [1] the test system is Neisseria meningitidis. The assay can be described thus: Antimicrobial activity against Neisseria meningitidis by broth microdilution method. For orientation: In broth dilution the organism is exposed to a series of concentrations in liquid medium.
The subject of assay [2] is Neisseria meningitidis. The assay can be described thus: Antimicrobial activity against Neisseria meningitidis assessed as susceptible isolate by broth microdilution method.
Assay [3] has as its system Neisseria meningitidis. The assay can be described thus: Antimicrobial activity against Neisseria meningitidis assessed as resistant isolate by broth microdilution method.

As for `CC[C@H]1OC(=O)[C@H](C)C(=O)[C@H](C)[C@@H](O[C@@H]2O[C@H](C)C[C@H](N(C)C)[C@H]2O)[C@](C)(OC)C[C@@H](C)C(=O)[C@H](C)[C@H]2N(CCCCn3cnc(-c4cccnc4)c3)C(=O)O[C@]12C` [TELITHROMYCIN], in the assay with Neisseria meningitidis [1], the MIC was at most 0.015 µg/mL, the MIC50 is at most 0.015 µg/mL and the MIC90 came out at 0.03 µg/mL (≈ 0.0369 µM).
Regarding `CC[C@H]1OC(=O)[C@H](C)[C@@H](O[C@H]2C[C@@](C)(OC)[C@@H](O)[C@H](C)O2)[C@H](C)[C@@H](O[C@@H]2O[C@H](C)C[C@H](N(C)C)[C@H]2O)[C@](C)(O)C[C@@H](C)CN(C)[C@H](C)[C@@H](O)[C@]1(C)O` [AZITHROMYCIN], the Activity in the assay with Neisseria meningitidis [2] was found to be 100%. In the assay with Neisseria meningitidis [1], this molecule registered an MIC of at most 0.015 µg/mL, an MIC50 of 0.06 µg/mL (≈ 0.0801 µM) and an MIC90 of 0.12 µg/mL (≈ 0.16 µM).
In the assay with Neisseria meningitidis [1], `CC[C@H]1OC(=O)[C@H](C)[C@@H](O[C@H]2C[C@@](C)(OC)[C@@H](O)[C@H](C)O2)[C@H](C)[C@@H](O[C@@H]2O[C@H](C)C[C@H](N(C)C)[C@H]2O)[C@](C)(O)C[C@@H](C)C(=O)[C@H](C)[C@@H](O)[C@]1(C)O` [ERYTHROMYCIN] had an MIC of at most 0.03 µg/mL, an MIC50 of 0.12 µg/mL (≈ 0.164 µM) and an MIC90 of 0.25 µg/mL (≈ 0.341 µM).
In the case of `CC1(C)S[C@@H]2[C@H](NC(=O)Cc3ccccc3)C(=O)N2[C@H]1C(=O)O` [PENICILLIN G], the Activity with Neisseria meningitidis [3] is recorded as 0%. In addition, the Activity in the assay with Neisseria meningitidis [2] is reported as 84.5%. In the assay on Neisseria meningitidis [1], this molecule came in with an MIC of at most 0.015 µg/mL, an MIC50 of 0.03 µg/mL (≈ 0.0897 µM) and an MIC90 of 0.12 µg/mL (≈ 0.359 µM).
On to `CO/N=C(\C(=O)N[C@@H]1C(=O)N2C(C(=O)O)=C(CSc3nc(=O)c(O)nn3C)CS[C@H]12)c1csc(N)n1` [CEFTRIAXONE], for which the Activity with Neisseria meningitidis [2] is listed as 100%. For the same molecule, in the assay with Neisseria meningitidis [1], the MIC50 is at most 0.015 µg/mL and the MIC90 is at most 0.015 µg/mL.
Consider `CN(C)c1ccc(O)c2c1C[C@H]1C[C@H]3[C@H](N(C)C)C(O)=C(C(N)=O)C(=O)[C@@]3(O)C(O)=C1C2=O` [MINOCYCLINE], for which the Activity in the assay on Neisseria meningitidis [3] was determined as 0%. The Activity in the assay on Neisseria meningitidis [2] was found to be 100%. In the assay on Neisseria meningitidis [1], this molecule displayed a minimum inhibitory concentration (MIC) of at most 0.015 µg/mL, an MIC50 of 0.12 µg/mL (≈ 0.262 µM) and an MIC90 of 0.25 µg/mL (≈ 0.546 µM).
Consider `CC[C@H]1OC(=O)[C@@](C)(F)C(=O)[C@H](C)[C@@H](O[C@@H]2O[C@H](C)C[C@H](N(C)C)[C@H]2O)[C@](C)(OC)C[C@@H](C)C(=O)[C@H](C)[C@H]2N(CCCCn3cc(-c4cccc(N)c4)nn3)C(=O)O[C@]12C` [SOLITHROMYCIN], for which, in the assay with Neisseria meningitidis [1], the MIC was at most 0.015 µg/mL, the MIC50 is at most 0.015 µg/mL and the MIC90 is at most 0.015 µg/mL.
In the assay with Neisseria meningitidis [1], `CC[C@H]1OC(=O)[C@H](C)[C@@H](O[C@H]2C[C@@](C)(OC)[C@@H](O)[C@H](C)O2)[C@H](C)[C@@H](O[C@@H]2O[C@H](C)C[C@H](N(C)C)[C@H]2O)[C@](C)(OC)C[C@@H](C)C(=O)[C@H](C)[C@@H](O)[C@]1(C)O` [CLARITHROMYCIN] showed a minimal inhibitory concentration (MIC) of at most 0.015 µg/mL, an MIC50 of 0.03 µg/mL (≈ 0.0401 µM) and an MIC90 of 0.12 µg/mL (≈ 0.16 µM).
With `C[C@H]1COc2c(N3CCN(C)CC3)c(F)cc3c(=O)c(C(=O)O)cn1c23.C[C@H]1COc2c(N3CCN(C)CC3)c(F)cc3c(=O)c(C(=O)O)cn1c23.O` [LEVOFLOXACIN], the Activity with Neisseria meningitidis [3] was found to be 1.9%. Also, in the assay with Neisseria meningitidis [2], the Activity turned out to be 97.1%. In the assay on Neisseria meningitidis [1], this molecule came in with a minimal inhibitory concentration (MIC) of at most 0.008 µg/mL, an MIC50 of at most 0.008 µg/mL and an MIC90 of at most 0.008 µg/mL.
Turning to `O=C(O)c1cn(C2CC2)c2cc(N3CCNCC3)c(F)cc2c1=O` [CIPROFLOXACIN], the Activity with Neisseria meningitidis [3] is 1.9%; in the assay on Neisseria meningitidis [2], 97.1%.
For the molecule `CO[C@H]1/C=C/O[C@@]2(C)Oc3c(C)c(O)c4c(O)c(c(/C=N/N5CCN(C)CC5)c(O)c4c3C2=O)NC(=O)/C(C)=C\C=C\[C@H](C)[C@H](O)[C@@H](C)[C@@H](O)[C@@H](C)[C@H](OC(C)=O)[C@@H]1C` [RIFAMPIN], the Activity in the assay with Neisseria meningitidis [3] is on record as 0%. The Activity in the assay on Neisseria meningitidis [2] came out at 100%. In the assay on Neisseria meningitidis [1], this molecule displayed an MIC50 of 0.015 µg/mL (≈ 0.0182 µM) and an MIC90 of 0.03 µg/mL (≈ 0.0365 µM).

For orientation: MIC means the lowest concentration that inhibits growth of the organism. Broadly, the MIC50 is the lowest concentration that inhibits either 50% of growth or 50% of the strains tested, depending on the study. The low end stands for greater potency, the high end for weaker potency. As a reminder, the MIC90 is an inhibitory concentration at the 90% level, which refers to growth in some studies and to a panel of isolates in others. Low values mean greater potency, high ones weaker potency.
